Where a SMILES comes first, the peptide text is derived from it. Bridges are numbered along the chain shown (N, C = ends). [ ]: non-standard residue; d: D form. The star is where a group is joined. Adamantane1carbonyl = O=C(C12CC3CC(CC(C3)C1)C2)*; 2Nal = N[C@@H](Cc1ccc2ccccc2c1)C(=O)O; Cit = NC(=O)NCCC[C@H](N)C(=O)O
Legend:
[1] = Sensing: binding of functionalized cells to a glass slide coated with β-cyclodextrin; details: 1 h ligand incubation, 15 min on slide
Protocol: A glass slide was coated with β-cyclodextrin in a line of 400 micrometer wide. CXCR4 expressing cells (see previous examples) were incubated for 1 h with the ligand-guest compound Ac-TZ14011-Ad as discussed above and then added to the glass slide and incubated for 15 min. […] The conclusion of this experiment is that cells can be selectively found (and bound) within a solution by using the guest-host chemistry of the present invention. This enables one to purify (and at least to sense) particular types of cells within a solution and/or mixture of cells.

CXCR4 receptor = target: T1, CXCR4 receptor (Homo sapiens, UniProt P61073); assay: Flow cytometry competition with Ac-TZ14011-MSAP to determine receptor affinity (KD); format: binding; details: competition with Ac-TZ14011-MSAP (250 nM), MDA-GFP-CXCR4+ cells
T1 construct: expressed in transfected cells; host or cells: MDA-MB-231 human breast cancer cells (MDA-GFP-CXCR4+), gift of Dr. Gary Luker
Description: The necessity of a multivalent approach was studied by direct comparison between an entity comprising polymeric host functional groups (multivalent) and a monovalent host functional group. A genetically modified MDA-MB-231 human breast cancer cell line that has the Green Fluorescent Protein (GFP) directly coupled to the overexpressed CXCR4 receptor was used to study the interactions with CXCR4 positive cells. The CXCR4 chemokine receptor is over-expressed in the membrane of many human cancer cells, but CXCR4 also play a major role in the chemotaxis of stem cells. The cyclic peptide Ac-TZ14011 is often used to target this receptor and was also chosen here as the ligand. […] The binding strength between the receptor and the peptide was determined by competition with a previously reported modified Ac-TZ14011 derivative. […] The cells were then washed two times with 1% BSA in PBS, resuspended in 1% BSA in PBS and fluorescence of the reference compound was measured by using a BD FacsCanto™ II flow cytometer with APC-Cy7 settings. Live cells were gated on forward scatter and side scatter and 10000 viable cells were analyzed. […] The KD values were calculated by using the “Binding-Competitive, One site-Fit Ki” nonlinear regression equation of GraphPad Prism. […]
MDA-GFP-CXCR4+ cells were trypsinized (using 0.5% trypsin/EDTA, BD Biosciences) and counted. […]

T1 sequence (P61073 whole entry): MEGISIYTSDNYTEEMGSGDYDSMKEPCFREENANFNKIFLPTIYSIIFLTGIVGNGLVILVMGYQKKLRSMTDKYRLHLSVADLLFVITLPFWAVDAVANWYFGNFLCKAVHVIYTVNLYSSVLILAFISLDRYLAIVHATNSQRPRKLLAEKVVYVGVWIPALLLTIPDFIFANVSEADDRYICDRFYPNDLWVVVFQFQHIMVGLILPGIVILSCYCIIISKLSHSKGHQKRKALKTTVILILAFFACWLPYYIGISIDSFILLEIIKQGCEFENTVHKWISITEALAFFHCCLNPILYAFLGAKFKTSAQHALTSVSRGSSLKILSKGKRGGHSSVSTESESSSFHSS

CC(=O)N[C@@H](CCCNC(=N)N)C(=O)N[C@@H](CCCNC(=N)N)C(=O)N[C@@H](Cc1ccc2ccccc2c1)C(=O)N[C@H]1CSSC[C@@H](C(=O)N[C@@H](CCCNC(=N)N)C(N)=O)NC(=O)[C@H](CCCNC(N)=O)NC(=O)[C@H](CCCNC(=N)N)NC(=O)[C@H](Cc2ccc(O)cc2)NC(=O)[C@@H]2CCCN2C(=O)[C@@H](CCCCNC(=O)C23CC4CC(CC(C4)C2)C3)NC(=O)[C@H](CCCNC(=N)N)NC(=O)[C@H](CCCNC(N)=O)NC(=O)[C@H](Cc2ccc(O)cc2)NC1=O [Ac-TZ14011-Ad] (Ac-RR[2Nal]CY[Cit]R[dK](Adamantane1carbonyl)PYR[Cit]CR-NH2; disulfide 4-13)
attachment of functionalized cells to the cyclodextrin coated area [1]: preferentially attach | Kd (CXCR4 receptor): 56 nM

From patent publication US20180216060A1, “METHODS AND MEANS FOR THE MODIFICATION OF CELL SURFACES” (ACADEMISCH ZIEKENHUIS LEIDEN (ALSO ACTING UNDER THE NAME OF …, priority 2015, published 2018)
